target: T1, recombinant human baculovirus-expressed GST-tagged FASN (Homo sapiens, UniProt P49327); assay: FASN enzyme activity assay: fluorescence-based detection of CoA with CPM; format: biochemical; settings: 5 nM FASN, 150 μM NADPH, 10 μM acetyl-CoA, 25 μM malonyl-CoA, 90 minutes incubation
T1 construct: GST; host or cells: baculovirus expression system (insect cells implied)
Outline: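 IC50 values were fitted (variable-slope sigmoid) to percent inhibition from CPM fluorescence (390/530 nm) reporting free CoA after a 30 min labelling step. The reaction ran 90 min after malonyl-CoA (25 μM) addition, with 10 μM acetyl-CoA, 150 μM NADPH, 5 nM recombinant GST-FASN, 50 mM HEPES pH 7.5 and 0.5% DMSO.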

T1 sequence (P49327 whole entry): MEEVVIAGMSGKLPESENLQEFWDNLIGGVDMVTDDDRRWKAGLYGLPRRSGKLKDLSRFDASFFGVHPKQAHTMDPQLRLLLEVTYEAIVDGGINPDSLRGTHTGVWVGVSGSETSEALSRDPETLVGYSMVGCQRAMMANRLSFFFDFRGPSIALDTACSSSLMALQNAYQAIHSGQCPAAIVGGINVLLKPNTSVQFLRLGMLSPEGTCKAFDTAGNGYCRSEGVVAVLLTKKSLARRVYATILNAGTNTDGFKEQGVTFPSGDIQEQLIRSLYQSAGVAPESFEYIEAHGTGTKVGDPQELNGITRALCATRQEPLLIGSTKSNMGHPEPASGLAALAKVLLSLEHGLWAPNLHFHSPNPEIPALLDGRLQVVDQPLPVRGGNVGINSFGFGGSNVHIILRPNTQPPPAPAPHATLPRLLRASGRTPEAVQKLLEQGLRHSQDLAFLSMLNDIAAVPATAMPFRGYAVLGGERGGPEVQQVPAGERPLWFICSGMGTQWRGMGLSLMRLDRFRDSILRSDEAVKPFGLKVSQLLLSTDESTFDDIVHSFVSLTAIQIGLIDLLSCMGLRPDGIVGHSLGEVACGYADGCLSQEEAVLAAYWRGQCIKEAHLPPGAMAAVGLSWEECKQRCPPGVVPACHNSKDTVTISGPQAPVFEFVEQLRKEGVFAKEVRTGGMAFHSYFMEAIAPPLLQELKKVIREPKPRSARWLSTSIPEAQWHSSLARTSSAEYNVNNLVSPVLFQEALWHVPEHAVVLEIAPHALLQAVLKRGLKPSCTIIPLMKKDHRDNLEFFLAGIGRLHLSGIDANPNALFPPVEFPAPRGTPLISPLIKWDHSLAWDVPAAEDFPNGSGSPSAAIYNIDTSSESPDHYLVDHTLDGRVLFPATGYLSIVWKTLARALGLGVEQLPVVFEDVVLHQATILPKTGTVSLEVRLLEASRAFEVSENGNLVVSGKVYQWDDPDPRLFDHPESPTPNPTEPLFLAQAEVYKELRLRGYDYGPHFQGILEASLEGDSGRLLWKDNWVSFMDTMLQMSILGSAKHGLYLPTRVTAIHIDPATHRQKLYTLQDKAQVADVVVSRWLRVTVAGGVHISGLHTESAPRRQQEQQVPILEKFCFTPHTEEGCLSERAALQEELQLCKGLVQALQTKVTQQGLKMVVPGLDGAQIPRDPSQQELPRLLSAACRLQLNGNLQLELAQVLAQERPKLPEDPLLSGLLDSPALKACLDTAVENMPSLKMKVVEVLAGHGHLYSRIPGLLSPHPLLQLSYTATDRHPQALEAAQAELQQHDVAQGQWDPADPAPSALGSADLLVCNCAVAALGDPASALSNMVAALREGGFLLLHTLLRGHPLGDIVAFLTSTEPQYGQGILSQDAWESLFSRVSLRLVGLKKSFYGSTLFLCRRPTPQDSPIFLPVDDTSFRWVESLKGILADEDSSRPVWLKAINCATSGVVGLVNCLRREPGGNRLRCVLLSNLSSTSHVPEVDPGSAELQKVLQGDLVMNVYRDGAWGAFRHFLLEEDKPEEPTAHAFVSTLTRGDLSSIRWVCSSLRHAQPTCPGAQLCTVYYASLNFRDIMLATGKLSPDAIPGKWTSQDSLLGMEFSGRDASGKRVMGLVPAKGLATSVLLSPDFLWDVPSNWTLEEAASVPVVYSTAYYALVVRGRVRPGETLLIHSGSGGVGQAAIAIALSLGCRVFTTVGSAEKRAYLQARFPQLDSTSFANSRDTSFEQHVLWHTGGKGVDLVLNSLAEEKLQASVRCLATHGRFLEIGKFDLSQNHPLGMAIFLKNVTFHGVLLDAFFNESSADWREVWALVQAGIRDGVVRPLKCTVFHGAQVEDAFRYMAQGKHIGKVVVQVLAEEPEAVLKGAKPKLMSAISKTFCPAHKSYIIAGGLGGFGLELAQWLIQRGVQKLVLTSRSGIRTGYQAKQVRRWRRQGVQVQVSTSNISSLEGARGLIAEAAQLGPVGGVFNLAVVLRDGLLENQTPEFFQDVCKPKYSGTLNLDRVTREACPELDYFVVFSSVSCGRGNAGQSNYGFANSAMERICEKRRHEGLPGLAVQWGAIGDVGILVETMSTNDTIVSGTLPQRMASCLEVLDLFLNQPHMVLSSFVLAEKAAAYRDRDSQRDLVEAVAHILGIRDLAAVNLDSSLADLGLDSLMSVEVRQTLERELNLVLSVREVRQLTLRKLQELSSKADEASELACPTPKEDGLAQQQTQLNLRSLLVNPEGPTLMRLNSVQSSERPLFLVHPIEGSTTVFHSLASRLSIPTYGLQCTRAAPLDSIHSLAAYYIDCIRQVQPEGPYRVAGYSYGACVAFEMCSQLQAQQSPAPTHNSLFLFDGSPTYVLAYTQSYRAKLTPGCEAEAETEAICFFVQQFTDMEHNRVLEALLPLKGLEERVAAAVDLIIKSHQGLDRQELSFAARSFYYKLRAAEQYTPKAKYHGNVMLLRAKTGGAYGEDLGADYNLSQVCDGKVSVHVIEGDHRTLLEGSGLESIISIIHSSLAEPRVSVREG

IC50 | SMILES
100 to 999 nM | CCC(=O)N1CCC(F)(Cc2ccc(-c3ccc4occc4c3)cc2)CC1 [Example 169, 1-(4-(4-(benzofuran-5-yl)benzyl)-4-fluoropiperidin-1-yl)propan-1-one]
100 to 999 nM | CCC(=O)N1CCC(C(c2ccc(-c3cnc4ccccc4c3)cc2)C(C)C)CC1 (centres unmarked) [Example 61, 1-{4-[2-Methyl-1-(4-quinolin-3-yl-phenyl)-propyl]-piperidin-1-yl}-propan-1-one]
100 to 999 nM | O=C(C1CC1)N1CC=C(Cc2ccc(-c3cncc4ccccc34)cc2)CC1 [Example 178, Cyclopropyl(4-(4-(isoquinolin-4-yl)benzyl)-5,6-dihydropyridin-1(2H)-yl)methanone]
1 to 99 nM | O=C([C@H]1CCCO1)N1CC[C@@H](Cc2ccc(-c3cnc4ccccc4c3)cc2)[C@H](O)C1 [Example 224, [trans-3-Hydroxy-4-(4-quinolin-3-yl-benzyl)-piperidin-1-yl]-(R)-tetrahydrofuran-2-yl-methanone]
1 to 99 nM | O=C(C1CC1)N1CCC(C(F)c2ccc(-c3cnc4ccccc4c3)cc2)CC1 (centres unmarked) [Example 7, Cyclopropyl-{4-[fluoro-(4-quinolin-3-yl-phenyl)-methyl]-piperidin-1-yl}-methanone]
1 to 99 nM | CCC(=O)N1CC=C(Cc2ccc(-c3ccc4occc4c3)cc2)CC1 [Example 170, 1-(4-(4-(benzofuran-5-yl)benzyl)-5,6-dihydropyridin-1(2H)-yl)propan-1-one]
100 to 999 nM | CCC(=O)N1CCC(C(c2ccc(-c3cnc4ccccc4c3)cc2)C2CC2)CC1 (centres unmarked) [Example 48, 1-{4-[Cyclopropyl-(4-quinolin-3-yl-phenyl)-methyl]-piperidin-1-yl}-propan-1-one]
1000 to 10000 nM | CCCC(=O)N1CCC(C2(c3ccc(-c4ccc5ncccc5c4)cc3)OCCO2)CC1 [Example 105, 1-{4-[2-(4-Quinolin-6-yl-phenyl)-1,3-dioxolan-2-yl]-piperidin-1-yl}-butan-1-one]
100 to 999 nM | O=C(C1CC1)N1CC=C(Cc2ccc(-c3cnc4ccccc4c3)cc2)CC1 [Example 172, Cyclopropyl(4-(4-(quinolin-3-yl)benzyl)-5,6-dihydropyridin-1(2H)-yl)methanone]

Further lines, the compound ahead of its results:

SMILES | IC50
CCC(=O)N1CCC(C(C)c2ccc(-c3ccc4cccnc4c3Cl)cc2)CC1 (centres unmarked) [Example 72, 1-(4-{1-[4-(8-chloroquinolin-7-yl)-phenyl]-ethyl}-piperidin-1-yl)-propan-1-one] | 1 to 99 nM
CCC(=O)N1CCC(C(C)c2ccc(-c3cnc4ccccc4c3Cl)cc2)CC1 (centres unmarked) [Example 75, 1-(4-{1-[4-(4-Chloroquinolin-3-yl)-phenyl]-ethyl}-piperidin-1-yl)-propan-1-one] | 1 to 99 nM
CCC(=O)N1CC=C(Cc2ccc(-c3ccc4cccnc4c3C)cc2)CC1 [Example 186, 1-(4-(4-(8-methylquinolin-7-yl)benzyl)-3,6-dihydropyridin-1(2H)-yl)propan-1-one] | 1 to 99 nM
O=C([C@@H]1CCCO1)N1CCC(Cc2ccc(-c3cnc4ccccc4c3)cc2)CC1 [Example 5] | 1 to 99 nM
Cc1c(-c2ccc(C(OCCCN3CCOCC3)C3CCN(C(=O)[C@H]4CCCO4)CC3)cc2)ccc2cccnc12 (stereo partly drawn) [Example 84, {4-[[4-(8-Methylquinolin-7-yl)-phenyl]-(3-morpholin-4-yl-propoxy)-methyl]-piperidin-1-yl}-(R)-tetrahydrofuran-2-yl-methanone] | 1 to 99 nM
O=C(C1CC1)N1CCC(C2(c3ccc(-c4ccc5cccnc5c4)cc3)OCCO2)CC1 [Example 112, Cyclopropyl-{4-[2-(4-quinolin-7-yl-phenyl)-1,3-dioxolan-2-yl]-piperidin-1-yl}-methanone] | 1000 to 10000 nM
Cc1c(-c2ccc(CC3CCN(C(=O)N(C)C)CC3)cc2)ccc2cccnc12 [Example 233, N,N-dimethyl-4-[[4-(8-methyl-7-quinolyl)phenyl]methyl]piperidine-1-carboxamide] | 1 to 99 nM
CC(c1ccc(-c2cnc3ccccc3c2)cc1)C1CCN(C=O)CC1 (centres unmarked) [Example 60, 4-[1-(4-Quinolin-3-yl-phenyl)-ethyl]-piperidine-1-carbaldehyde] | 1000 to 10000 nM

Source: patent US11878966B2, “Substituted 4-benzyl and 4-benzoyl piperidine derivates” (89BIO LTD, priority 2015, dated 2024)
